{"source": "patent US11707448B2", "about": "“Combination therapies for the treatment of cancer” (Eisai R&D Management Co., Ltd., priority 2014, dated 2023)", "key": {"[1]": {"test_system": "CT26 cells", "test": "Rechallenge of cured (tumor-free) mice with CT26 cells", "format": "in vivo", "details": "mice cured by ER-886046 + radiation", "text": "FIG. 4A to FIG. 4C. Long lasting anti-tumor effect with a memory immune response by ER-886046/radiation treatment. Panel shown in FIG. 4A) Tumor growth in the cured mice by ER-886046 and radiation combination treatment or in the naïve Ba1B/c mice that received injection of CT26 cells. Panel shown in FIG. 4B) Tumor growth of secondarily challenged CT-26 tumors in the cured mice or in naïve mice. Panel shown in FIG. 4C) Growth of 4T1 tumors in cured mice or in naïve mice. N=9-10. Note the complete rejection of challenged CT-26 tumor and reduced growth of challenged 4T1 tumors in the combination cured mice. ***, p<0.001. 2 tailed student t-test. Note that no treatment was applied to any animals.\nIn case of tumor rechallenge of tumor-free mice after treatments, CT26 cells and 4T1 cells were individually sc injected into the different flanks of the same mouse, and the growth of each tumor was measured and graphed as described above. Naïve mice that received neither cancer cell injection nor drug treatment were included as controls. […] At the end of study on day 27, the mice in all treatment groups were intranasally administered luciferin and the lungs were resected and analysed for luciferase expression using IVIS instrument. Quantification of the luciferase activity in the lungs was achieved by software Living Image."}, "[2]": {"test_system": "CT26 tumors", "test": "Bilateral CT26 tumor model (abscopic effect)", "format": "in vivo, mice", "description": "FIG. 5A to FIG. 5B. Anti-tumor effect of ER-886046/radiation in a bilateral tumor model. Two similar-sized CT-26 tumors were grown in a host by injecting CT26 cells subcutaneously on both right and left flanks of Ba1B/c mice. Radiation was applied to the right flank tumor on both day 9 and day 13 as indicated by arrows in panel A. ER-886046 was administered daily po to the animals at a dose of 150 mg/kg as indicated by the bars. ER-886046 was dosed to animals from day 9 to day 27. Panel shown in FIG. 5A) Average size of the right flank tumor that received radiation and ER-886046. Panel shown in FIG. 5B) Average size of the left flank tumor that received no radiation (radiation administered only to the right flank tumor).\nAbscopic effect of the combination treatment of ER-886046 and radiation in an animal model. Induction of anti-tumor immune response can be systemic and thus highly valuable for treating metastatic cancer, which has multiple lesions in one host. To mimic the large metastatic lesions in mice, we simultaneously grew CT26 tumors on both sides of an individual mouse by subcutaneously injecting cancer cells. The tumors on the right side of the mice were treated with both radiation and ER-886046. The tumors on the left side of the mice received ER-886046 only."}, "[3]": {"test_system": "immune cells in the CT26 tumors", "test": "Flow cytometry of intratumoral immune cells in CT26 tumors", "format": "in vivo, mice", "description": "FIG. 7A to FIG. 7B. Radiation and ER-886046 worked synergistically to modify the intratumoral immunity. Panel shown in FIG. 7A) Quantification of myeloid cells (CD11b^+) and cytotoxic T cells (CD8^+) in the CT26 tumors that received 9 Gy alone, 9 Gy+ER-886046, or vehicle alone. Panel shown in FIG. 7B) Quantification of myeloid-derived suppressor cells (MDSC cells, CD11b^+Gr1^+) in the tumors. Radiation was given once to the tumors on the day of randomization, while ER-886046 was administered po daily administrated at 150 mg/kg to the animals for 7 consecutive days after randomization. The tumors were analyzed by flow cytometry one day after the last dose of ER-886046. **, p<0.01; ns, not significant; student t-test.\nFlow cytometry; CT26 tumors with or without treatments received were surgically resected and minced by physical pressure, followed by digestion with collagenase I at 1 mg/ml at 37° C. for 1 h. The single cell mixtures from the digestion were labelled by incubation with fluorescent antibodies against immune cell antigens and analysed by flow cytometry. Cell population calculation was performed by software FlowJo 7.6."}, "[4]": {"test_system": "B16F10 melanoma tumors", "test": "B16F10 melanoma model, ER-886046 with anti-CTLA4", "format": "in vivo, mice", "description": "FIG. 8A to FIG. 8B. Synergistic anti-tumor activity of ER-886046 with anti-CTLA4 in B16F10 tumors. Panel shown in FIG. 8A) Anti-tumor growth activities of anti-CTLA4 and ER-886046 in B16F10 melanoma tumors growing in C57BL/6 mice. Panel shown in FIG. 8B) Animal body weight changes of the treatment groups. Anti-CTLA4 dosing: 200 μg for the first intravenous (iv) injection on day 3 after transplantation and 100 μg for the other three iv injections on days 6, 9 and 12 as indicated by the arrows. ER-886046 dosing: 150 mg/kg, po daily administration from day 3 to day 15 as indicated by the bars. *, p<0.05; **, p<0.01; ns, not significant; student t test.\nAnimal studies; In vitro cultured cancer cells were harvested and suspended in 100 μl of phosphate buffered saline at a cell concentration of 1.0×10^5 cells/ml and subcutaneously (sc) injected into the mice using a 26 g syringe on day 0. At the days post cell implantation as indicated in the figures, the mice were randomized based on the tumor size followed by treatments with radiation at 3 or 9 Gy dose per treatment, anti-PDL1 at 200 μg/mouse per intraperitoneal injection (ip), or anti-CTLA4 at 200 or 100 μg/mouse per ip injection with or without orally administration of ER-886046 at a dose of 150 mg/kg. The animals that were assigned to the treatment groups in individual study had close mean tumor weights in all groups. The tumor sizes were measured twice a week by a digital caliper (Mitutoyo Corp), and the volume was calculated using the formula (1×w^2)/2=mm^3, where 1 and w refer to the larger and smaller perpendicular dimensions collected at each measurement. Graphs of group tumor sizes (mean±SEM) and body weights (mean±SEM) versus time were plotted using software GraphPad Prism 6 (Lake Forest, Calif.). Student t-test and Gehan-Breslow-Wilcoxon test were used for statistical analysis."}}}
{"smiles": "C[C@H](NC(=O)c1c(C(F)F)nn(C)c1Oc1cccc(C(F)(F)F)c1)c1ccc(C(=O)O)cc1", "note": "[ER-886046]", "values": [{"measurement": "tumor growth after secondary CT26 challenge", "setting": "[1]; 1.5 months after the first challenge", "result": "did not produce detectable tumor"}, {"measurement": "tumor growth after CT26 challenge at another site", "setting": "[1]; monitored 1.5 months, no further treatment", "result": "did not grow tumors at all"}, {"measurement": "growth of right side tumor (radiated)", "setting": "[2]; ER-886046 150 mg/kg po daily day 9-27 + radiation of right flank tumor day 9 and 13, vs radiation alone or ER-886046 alone", "result": "better tumor growth suppression"}, {"measurement": "growth of left side tumor (not radiated)", "setting": "[2]; ER-886046 150 mg/kg po daily day 9-27, radiation only to right flank tumor, vs no ER-886046 treatment", "result": "significantly reduced tumor growth rate"}, {"measurement": "ratio of Gr1+ cells among CD45+CD11b+ cells (MDSC)", "setting": "[3]; ER-886046 150 mg/kg po daily 7 days + 9 Gy radiation, vs vehicle or radiation alone", "result": "reduced the ratio of Gr1^+ cells among CD45^+CD11b^+ cells"}, {"measurement": "tumor infiltration frequency of CD8+ T cells and CD11b+ myeloid cells", "setting": "[3]; ER-886046 150 mg/kg po daily 7 days added to 9 Gy radiation, vs radiation alone", "result": "no additional significant effect"}, {"measurement": "anti-tumor growth activity, combination", "setting": "[4]; ER-886046 150 mg/kg po daily day 3-15 + anti-CTLA4 200/100 μg days 3, 6, 9, 12", "result": "highly significant anti-tumor activity"}, {"measurement": "animal body weight", "setting": "[4]; ER-886046 + anti-CTLA4 combination", "result": "No animal body weight loss"}, {"measurement": "anti-tumor growth activity, single agent", "setting": "[4]; alone, ER-886046 150 mg/kg po daily day 3-15, anti-CTLA4 200 μg day 3, 100 μg days 6, 9, 12", "result": "minimal activity"}]}
